Values joined by “and” are separate entries in the source; they are usually repeats but may differ in a detail not shown here. Equal entries are not always repeated. Toxic doses and inconclusive results are not listed.
Test system: BDF1 mice, P388 leukemia ip, median survival T/C
Assay: NCI In Vivo Anticancer Drug Screen. Data for tumor model P388 Leukemia (intraperitoneal) in B6D2F1 (BDF1) mice
Settings: endpoint: median survival time, higher = longer survival
In short: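 Reported as T/C, where T is the survival measurement in dosed animals and C the same measurement in vehicle controls.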

[1] = dose: 100.0 mg/kg/injection, schedule: Q04DX003 (ip), vehicle: saline with Tween-80
[2] = dose: 200.0 mg/kg/injection, schedule: Q04DX003 (ip), vehicle: saline with Tween-80
[3] = dose: 400.0 mg/kg/injection, schedule: Q04DX003 (ip), vehicle: saline with Tween-80
[4] = dose: 100.0 mg/kg/injection, schedule: Q04DX003 (ip), vehicle: Klucel (hydroxypropylcellulose) (HPC)
[5] = dose: 200.0 mg/kg/injection, schedule: Q04DX003 (ip), vehicle: Klucel (hydroxypropylcellulose) (HPC)
[6] = dose: 400.0 mg/kg/injection, schedule: Q04DX003 (ip), vehicle: Klucel (hydroxypropylcellulose) (HPC)
[7] = dose: 12.5 mg/kg/injection, schedule: Q01DX009 (ip), vehicle: saline
[8] = dose: 25.0 mg/kg/injection, schedule: Q01DX009 (ip), vehicle: saline
[9] = dose: 50.0 mg/kg/injection, schedule: Q01DX009 (ip), vehicle: saline
[10] = dose: 50.0 mg/kg/injection, schedule: Q04DX003 (ip), vehicle: saline
[11] = dose: 100.0 mg/kg/injection, schedule: Q01DX009 (ip), vehicle: saline
[12] = dose: 200.0 mg/kg/injection, schedule: Q01DX009 (ip), vehicle: saline
[13] = dose: 200.0 mg/kg/injection, schedule: Q04DX003 (ip), vehicle: saline
[14] = dose: 400.0 mg/kg/injection, schedule: Q01DX009 (ip), vehicle: saline
[15] = dose: 75.0 mg/kg/injection, schedule: Q01DX009 (ip), vehicle: saline with Tween-80
[16] = dose: 150.0 mg/kg/injection, schedule: Q01DX009 (ip), vehicle: saline with Tween-80
[17] = dose: 50.0 mg/kg/injection, schedule: Q01DX009 (ip), vehicle: saline with Tween-80
[18] = dose: 100.0 mg/kg/injection, schedule: Q01DX009 (ip), vehicle: saline with Tween-80
[19] = dose: 200.0 mg/kg/injection, schedule: Q01DX009 (ip), vehicle: saline with Tween-80
[20] = dose: 25.0 mg/kg/injection, schedule: Q04DX003 (ip), vehicle: saline

SMILES: CN[C@H]1CC[C@]23C[C@]24CC[C@]2(C)[C@@H]([C@H](C)N(C)C)CC[C@@]2(C)[C@@H]4CC[C@H]3C1(C)C
- T/C (dose: 2.6 mg/kg/injection, schedule: Q01DX010 (ip), vehicle: saline): 90 % of control
- T/C (dose: 4.0 mg/kg/injection, schedule: Q01DX010 (ip), vehicle: saline): 100 % of control
- T/C (dose: 6.6 mg/kg/injection, schedule: Q01DX010 (ip), vehicle: saline): 118 % of control
- T/C (dose: 8.8 mg/kg/injection, schedule: Q01DX010 (ip), vehicle: carboxymethylcellulose (CMC)): 100 % of control
- T/C (dose: 10.0 mg/kg/injection, schedule: Q01DX010 (ip), vehicle: saline): 100 % of control
- T/C (dose: 13.3 mg/kg/injection, schedule: Q01DX010 (ip), vehicle: carboxymethylcellulose (CMC)): 105 % of control
- T/C (dose: 16.0 mg/kg/injection, schedule: Q01DX010 (ip), vehicle: saline): 113 % of control
- T/C (dose: 20.0 mg/kg/injection, schedule: Q01DX010 (ip), vehicle: carboxymethylcellulose (CMC)): 115 % of control
- T/C (dose: 26.0 mg/kg/injection, schedule: Q01DX010 (ip), vehicle: saline): 90 % of control
- T/C (dose: 30.0 mg/kg/injection, schedule: Q01DX010 (ip), vehicle: carboxymethylcellulose (CMC)): 94 % of control
- T/C (dose: 45.0 mg/kg/injection, schedule: Q01DX010 (ip), vehicle: carboxymethylcellulose (CMC)): 94 % of control

SMILES: CNC(=O)c1ccc(NC(=O)Nc2cccc(C3=NCCN3)c2)cc1NC(=O)Nc1cccc(C2=NCCN2)c1
- T/C (dose: 30.0 mg/kg/injection, schedule: Q01DX009 (ip), vehicle: saline with Tween-80): 162 % of control

SMILES: CC(=O)NS(=O)(=O)c1ccc(NC(=O)/C=C/C(=O)O)cc1
- T/C [1]: 104 % of control
- T/C [2]: 118 % of control
- T/C [3]: 104 % of control

SMILES: CCOC(=O)C(C)(C)CCl
- T/C [4]: 90 % of control
- T/C [5]: 90 % of control
- T/C [6]: 100 % of control

SMILES: CCOc1ccn(CC(=O)Nc2nccs2)c(=O)n1
- T/C [7]: 104 % of control
- T/C [8]: 95 % of control
- T/C [9]: 104 % of control
- T/C [10]: 114 % of control
- T/C [11]: 104 % of control
- T/C [12]: 100 % of control
- T/C [13]: 106 % of control
- T/C [14]: 94 % of control
- T/C (dose: 400.0 mg/kg/injection, schedule: Q04DX003 (ip), vehicle: saline): 97 % of control

SMILES: CCOC(=O)S(=O)(=O)c1ccc(C)cc1
- T/C (dose: 6.25 mg/kg/injection, schedule: Q01DX009 (ip), vehicle: saline): 90 % of control
- T/C [7]: 90 % of control
- T/C [8]: 115 % of control

SMILES: O=C1NC(=O)C(Cc2ccccc2)(c2ccccc2)N1 (stereo not drawn)
- T/C [15]: 97 % of control
- T/C [16]: 100 % of control

SMILES: S=C(NCCCN1CCOCC1)NN=C1c2ccccc2-c2ccccc21
- T/C [17]: 97 % of control
- T/C [18]: 91 % of control
- T/C [19]: 97 % of control

SMILES: CCOC(=O)c1ccc(OC(=O)Nc2ccccc2OC)cc1
- T/C [1]: 91 % of control
- T/C [2]: 108 % of control
- T/C [3]: 108 % of control

SMILES: CCOC(=O)C(C)[P+](c1ccccc1)(c1ccccc1)c1ccccc1 (stereo not drawn)
- T/C (dose: 1.0 mg/kg/injection, schedule: Q01DX009 (ip), vehicle: saline): 115 % of control
- T/C (dose: 1.5 mg/kg/injection, schedule: Q01DX009 (ip), vehicle: saline): 103 % of control
- T/C (dose: 1.5 mg/kg/injection, schedule: Q04DX003 (ip), vehicle: saline): 90 % of control
- T/C (dose: 2.25 mg/kg/injection, schedule: Q01DX009 (ip), vehicle: saline): 100 % of control
- T/C (dose: 3.0 mg/kg/injection, schedule: Q01DX009 (ip), vehicle: saline): 118 % of control
- T/C (dose: 3.0 mg/kg/injection, schedule: Q04DX003 (ip), vehicle: saline): 104 % of control
- T/C (dose: 6.0 mg/kg/injection, schedule: Q04DX003 (ip), vehicle: saline): 90 % of control

SMILES: CC(C)OC(=O)c1ccc(C(C)C)cc1
- T/C [18]: 110 % of control
- T/C [19]: 117 % of control

SMILES: S=c1[nH]ccn2cnnc12
- T/C (dose: 100.0 mg/kg/injection, schedule: Q01DX001 (ip), vehicle: saline with Tween-80): 88 % of control
- T/C (dose: 200.0 mg/kg/injection, schedule: Q01DX001 (ip), vehicle: saline with Tween-80): 106 % of control
- T/C (dose: 400.0 mg/kg/injection, schedule: Q01DX001 (ip), vehicle: saline with Tween-80): 100 % of control

SMILES: CCCNC(=O)Nc1cc(Cl)ccc1OC
- T/C [1]: 95 % of control
- T/C [3]: 95 % of control

SMILES: Cc1cc(Cl)ccc1NC(=O)N1c2ccccc2SC12CCCC2
- T/C [17]: 97 % of control
- T/C [18]: 91 % of control
- T/C [19]: 104 % of control

SMILES: CC(C)CC(NC(=O)C(O)C(N)Cc1ccccc1)C(=O)O (stereo not drawn)
- T/C (dose: 37.5 mg/kg/injection, schedule: Q01DX009 (ip), vehicle: saline with Tween-80): 94 % of control and 98 % of control
- T/C [15]: 95 % of control and 98 % of control
- T/C [16]: 95 % of control and 100 % of control

SMILES: C=C(C)C(=O)NCC(=O)NC(CC(C)C)C(=O)Oc1ccc([N+](=O)[O-])cc1 (stereo not drawn)
- T/C (dose: 25.0 mg/kg/injection, schedule: Q01DX009 (ip), vehicle: saline with Tween-80): 97 % of control
- T/C [17]: 97 % of control
- T/C [18]: 90 % of control

SMILES: Cc1ccc(S(=O)(=O)N/N=C/C(O)C(O)C(O)CO)cc1 (stereo not drawn)
- T/C (dose: 100.0 mg/kg/injection, schedule: Q01DX001 (ip), vehicle: saline): 110 % of control
- T/C (dose: 200.0 mg/kg/injection, schedule: Q01DX001 (ip), vehicle: saline): 105 % of control
- T/C (dose: 400.0 mg/kg/injection, schedule: Q01DX001 (ip), vehicle: saline): 120 % of control

SMILES: N/C(=N\O)c1cccnc1
- T/C (dose: 12.5 mg/kg/injection, schedule: Q01DX009 (ip), vehicle: water): 109 % of control
- T/C (dose: 25.0 mg/kg/injection, schedule: Q01DX009 (ip), vehicle: water): 102 % of control
- T/C (dose: 50.0 mg/kg/injection, schedule: Q01DX009 (ip), vehicle: water): 102 % of control
- T/C (dose: 50.0 mg/kg/injection, schedule: Q04DX003 (ip), vehicle: water): 101 % of control and 102 % of control
- T/C (dose: 100.0 mg/kg/injection, schedule: Q01DX009 (ip), vehicle: water): 102 % of control
- T/C (dose: 100.0 mg/kg/injection, schedule: Q04DX003 (ip), vehicle: water): 87 % of control and 105 % of control
- T/C (dose: 200.0 mg/kg/injection, schedule: Q01DX009 (ip), vehicle: water): 107 % of control
- T/C (dose: 200.0 mg/kg/injection, schedule: Q04DX003 (ip), vehicle: water): 100 % of control and 107 % of control
- T/C (dose: 300.0 mg/kg/injection, schedule: Q04DX003 (ip), vehicle: water): 108 % of control
- T/C (dose: 400.0 mg/kg/injection, schedule: Q01DX009 (ip), vehicle: water): 107 % of control

SMILES: COc1cc(N)ccc1C(=O)O
- T/C (dose: 0.39 mg/kg/injection, schedule: Q01DX009 (ip), vehicle: saline): 103 % of control
- T/C (dose: 0.78 mg/kg/injection, schedule: Q01DX009 (ip), vehicle: saline): 99 % of control
- T/C (dose: 3.12 mg/kg/injection, schedule: Q01DX009 (ip), vehicle: saline): 115 % of control
- T/C [9]: 95 % of control
- T/C [11]: 101 % of control
- T/C [12]: 96 % of control
- T/C [14]: 104 % of control

SMILES: CSCCCNC(=O)c1csc(-c2csc(CCNC(=O)C(F)(F)F)n2)n1
- T/C [17]: 103 % of control
- T/C [18]: 114 % of control
- T/C [19]: 87 % of control

SMILES: COC(=O)C(CCCCNC(=O)OCc1ccccc1)NC(=O)C(CCCCNC(=O)OCc1ccccc1)NC(=O)OC(C)(C)C (stereo not drawn)
- T/C (dose: 200.0 mg/kg/injection, schedule: Q01DX005 (ip), vehicle: saline with Tween-80): 90 % of control

SMILES: CSc1ccccc1C=O
- T/C [4]: 95 % of control
- T/C [5]: 100 % of control
- T/C [6]: 112 % of control

SMILES: CC1(c2cccs2)C(=O)N(Cl)C(=O)N1Cl (stereo not drawn)
- T/C (dose: 12.5 mg/kg/injection, schedule: Q04DX003 (ip), vehicle: saline): 100 % of control
- T/C [20]: 100 % of control
- T/C [9]: 122 % of control
- T/C [10]: 118 % of control
- T/C [11]: 119 % of control
- T/C (dose: 100.0 mg/kg/injection, schedule: Q04DX003 (ip), vehicle: saline): 107 % of control and 109 % of control and 118 % of control
- T/C [12]: 120 % of control
- T/C [13]: 118 % of control

SMILES: [Cl][Co][Cl].[NH-]CCC[NH-].[NH-]CCC[NH-]
- T/C [20]: 105 % of control
- T/C [10]: 110 % of control

From PubChem BioAssay AID328 (DTP/NCI, 2004)
